Test results as given in US9938269B2, “Inhibitor compounds of phosphodiesterase type 10A” (ABBVIE INC., priority 2011, dated 2018).
Structures can show the parent of a compound that is named as a salt.

Legend:
[1] = molecular target: T1, PDE10A (human) (Homo sapiens, UniProt Q9Y233); assay: Measurement of PDE activity (HTRF cAMP kit), human PDE10A; type: biochemical; settings: PDE enzymatic reaction, substrate 20 nM for PDE10, 60 minutes at 29 C
T1 construct: purchased BPS Bioscience
How it was run: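 HTRF detection of cAMP left after hydrolysis, expressed as percent of uninhibited control to derive IC50. Reaction: serially diluted inhibitor mixed with recombinant enzyme, started with 20 nM cAMP, 60 min at 29 °C in Tris-HCl pH 7.5 buffer containing MgCl2 and BSA.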

[2] = Determination of the microsomal half-life, human liver microsomes; settings: human, liver microsomes, pH 7.4
[3] = Determination of the microsomal half-life, rat liver microsomes; settings: rat, liver microsomes, pH 7.4

T1 sequence (Q9Y233 whole entry): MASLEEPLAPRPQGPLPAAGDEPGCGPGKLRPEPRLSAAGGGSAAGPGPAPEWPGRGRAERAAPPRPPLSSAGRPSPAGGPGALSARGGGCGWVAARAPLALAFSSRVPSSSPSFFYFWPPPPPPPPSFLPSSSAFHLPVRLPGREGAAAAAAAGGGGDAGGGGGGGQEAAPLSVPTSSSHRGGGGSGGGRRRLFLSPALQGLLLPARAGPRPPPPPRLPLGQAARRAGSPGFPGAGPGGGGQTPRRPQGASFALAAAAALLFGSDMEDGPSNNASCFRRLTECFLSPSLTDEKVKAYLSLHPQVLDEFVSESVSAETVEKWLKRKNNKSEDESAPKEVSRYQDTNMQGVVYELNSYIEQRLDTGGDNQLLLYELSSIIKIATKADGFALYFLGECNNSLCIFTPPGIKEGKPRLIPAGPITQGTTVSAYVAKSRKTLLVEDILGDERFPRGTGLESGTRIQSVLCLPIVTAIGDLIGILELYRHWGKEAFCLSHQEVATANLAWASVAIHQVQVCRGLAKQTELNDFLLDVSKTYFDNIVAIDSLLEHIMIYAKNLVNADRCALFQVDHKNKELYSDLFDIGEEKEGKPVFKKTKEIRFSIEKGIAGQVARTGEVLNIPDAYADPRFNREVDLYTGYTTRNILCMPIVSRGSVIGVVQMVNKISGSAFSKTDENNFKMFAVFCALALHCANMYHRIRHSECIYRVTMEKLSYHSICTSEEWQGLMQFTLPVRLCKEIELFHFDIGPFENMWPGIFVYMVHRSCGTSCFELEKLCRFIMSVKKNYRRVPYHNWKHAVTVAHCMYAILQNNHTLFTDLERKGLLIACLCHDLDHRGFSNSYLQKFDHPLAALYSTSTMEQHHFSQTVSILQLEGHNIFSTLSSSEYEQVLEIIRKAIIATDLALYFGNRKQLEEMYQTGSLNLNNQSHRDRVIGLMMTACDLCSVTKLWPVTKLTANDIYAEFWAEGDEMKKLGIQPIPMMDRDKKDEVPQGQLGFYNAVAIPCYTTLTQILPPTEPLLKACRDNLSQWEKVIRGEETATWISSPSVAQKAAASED

O=C1c2c(C3=CCOCC3)ccnc2CN1CCc1ccc2ccccc2n1 [Example 265, 4-(3,6-Dihydro-2H-pyran-4-yl)-6-(2-quinolin-2-yl-ethyl)-6,7-dihydro-pyrrolo[3,4-b]pyridin-5-one]
IC50 [1]: < 100 nM | microsomal CLint at 0.5 μM [2]: 100 to 220 µL/min/mg | microsomal CLint at 0.5 μM [3]: 100 to 220 µL/min/mg

O=C1c2c(N3CCOCC3)ccnc2CN1CCc1cn2ccccc2n1 [Example 270, 6-(2-Imidazo[1,2-a]pyridin-2-yl-ethyl)-4-morpholin-4-yl-6,7-dihydro-pyrrolo[3,4-b]pyridin-5-one di-trifluoroacetate]
IC50 [1]: < 100 nM | microsomal CLint at 0.5 μM [2]: < 100 µL/min/mg | microsomal CLint at 0.5 μM [3]: < 100 µL/min/mg

O=C1c2c(cccc2NC2COC2)CN1CCc1ccc2ccccc2n1 [Example 274, 7-(Oxetan-3-ylamino)-2-(2-quinolin-2-yl-ethyl)-2,3-dihydro-isoindol-1-one]
IC50 [1]: < 100 nM | microsomal CLint at 0.5 μM [2]: 100 to 220 µL/min/mg | microsomal CLint at 0.5 μM [3]: 100 to 220 µL/min/mg

O=C1c2c(NC3COC3)ccnc2CN1CCc1ccc2ccccc2n1 [Example 275, 4-(Oxetan-3-ylamino)-6-(2-quinolin-2-yl-ethyl)-6,7-dihydro-pyrrolo[3,4-b]pyridin-5_]
IC50 [1]: < 100 nM | microsomal CLint at 0.5 μM [2]: < 100 µL/min/mg | microsomal CLint at 0.5 μM [3]: < 100 µL/min/mg

CCn1c(CCN2Cc3cccc(N4CCOCC4)c3C2=O)nc2ccccc21 [Example 278, 2-[2-(1-Ethyl-1H-benzoimidazol-2-yl)-ethyl]-7-morpholin-4-yl-2,3-dihydro-isoindol-1-one]
IC50 [1]: < 100 nM | microsomal CLint at 0.5 μM [2]: 100 to 220 µL/min/mg | microsomal CLint at 0.5 μM [3]: 100 to 220 µL/min/mg

O=C1c2c(-c3ccncc3)ccc(F)c2CN1CCc1cn2ccccc2n1 [Example 280, 4-Fluoro-2-(2-imidazo[1,2-a]pyridin-2-yl-ethyl)-7-pyridin-4-yl-2,3-dihydro-isoindol-1-one]
IC50 [1]: < 100 nM | microsomal CLint at 0.5 μM [2]: 100 to 220 µL/min/mg | microsomal CLint at 0.5 μM [3]: 100 to 220 µL/min/mg

CN(C)CCCn1c(CCN2Cc3cccc(-c4ccncc4)c3C2=O)nc2ccccc21 [Example 294, 2-{2-[1-(3-Dimethylamino-propyl)-1H-benzoimidazol-2-yl]-ethyl}-7-pyridin-4-yl-2,3-dihydro-isoindol-1-one trifluoroacetate]
IC50 [1]: 200 to 500 nM | microsomal CLint at 0.5 μM [2]: 100 to 220 µL/min/mg | microsomal CLint at 0.5 μM [3]: < 100 µL/min/mg

O=C1c2c(N3CCOCC3)ccc(F)c2CN1CCc1cn2ccccc2n1 [Example 295, 4-Fluoro-2-(2-imidazo[1,2-a]pyridin-2-yl-ethyl)-7-morpholin-4-yl-2,3-dihydro-isoindol-1-one]
IC50 [1]: < 100 nM | microsomal CLint at 0.5 μM [2]: < 100 µL/min/mg | microsomal CLint at 0.5 μM [3]: < 100 µL/min/mg

O=C1c2c(-c3cncnc3)cc[n+]([O-])c2CN1CCc1ccc2ccccc2n1 [Example 296, 1-Oxy-4-pyrimidin-5-yl-6-(2-quinolin-2-yl-ethyl)-6,7-dihydro-pyrrolo[3,4-b]pyridin-5-one]
IC50 [1]: < 100 nM | microsomal CLint at 0.5 μM [2]: < 100 µL/min/mg | microsomal CLint at 0.5 μM [3]: < 100 µL/min/mg

O=C1c2c(C3CCOCC3)ccnc2CN1CCc1ccc2ccccc2n1 [Example 297, 6-(2-Quinolin-2-yl-ethyl)-4-(tetrahydro-pyran-4-yl)-6,7-dihydro-pyrrolo[3,4-b]pyridin-5-one]
IC50 [1]: < 100 nM | microsomal CLint at 0.5 μM [2]: 100 to 220 µL/min/mg | microsomal CLint at 0.5 μM [3]: 100 to 220 µL/min/mg

Cn1c(CCN2Cc3cccc(-c4ccncc4)c3C2=O)nc2c(F)cccc21 [Example 300, 2-[2-(4-Fluoro-1-methyl-1H-benzoimidazol-2-yl)-ethyl]-7-pyridin-4-yl-2,3-dihydro-isoindol-1-one trifluoroacetate]
IC50 [1]: < 100 nM | microsomal CLint at 0.5 μM [2]: > 220 µL/min/mg | microsomal CLint at 0.5 μM [3]: 100 to 220 µL/min/mg

Cc1ccc2c(c1)nc(CCN1Cc3cccc(N4CCOCC4)c3C1=O)n2C [Example 306, 2-[2-(1,5-Dimethyl-1H-benzoimidazol-2-yl)-ethyl]-7-morpholin-4-yl-2,3-dihydro-isoindol-1-one trifluoroacetate]
IC50 [1]: < 100 nM | microsomal CLint at 0.5 μM [2]: 100 to 220 µL/min/mg | microsomal CLint at 0.5 μM [3]: < 100 µL/min/mg

O=C1c2cccc(N3CCOCC3)c2CN1CCc1cn2ccccc2n1 [Example 308, 2-(2-Imidazo[1,2-a]pyridin-2-yl-ethyl)-4-morpholin-4-yl-2,3-dihydro-isoindol-1-one]
IC50 [1]: 100 to 200 nM | microsomal CLint at 0.5 μM [2]: < 100 µL/min/mg | microsomal CLint at 0.5 μM [3]: < 100 µL/min/mg

O=C1c2c(cccc2N2CCOCC2)CN1CCc1cn2ccccc2n1 [Example 310, 2-(2-Imidazo[1,2-a]pyridin-2-yl-ethyl)-7-morpholin-4-yl-2,3-dihydro-isoindol-1-one]
IC50 [1]: < 100 nM | microsomal CLint at 0.5 μM [2]: < 100 µL/min/mg | microsomal CLint at 0.5 μM [3]: < 100 µL/min/mg

O=C1c2c(cccc2-c2cncnc2)CN1CCc1nc2ccccc2[nH]1 [Example 312, 2-[2-(1H-Benzoimidazol-2-yl)-ethyl]-7-pyrimidin-5-yl-2,3-dihydro-isoindol-1-one trifluoroacetate]
IC50 [1]: < 100 nM | microsomal CLint at 0.5 μM [2]: < 100 µL/min/mg | microsomal CLint at 0.5 μM [3]: < 100 µL/min/mg

Cn1nccc1-c1cccc2c1C(=O)N(CCc1nc3ccccc3[nH]1)C2 [Example 313, 2-[2-(1H-Benzoimidazol-2-yl)-ethyl]-7-(2-methyl-2H-pyrazol-3-yl)-2,3-dihydro-isoindol-1-one trifluoroacetate]
IC50 [1]: 200 to 500 nM | microsomal CLint at 0.5 μM [2]: < 100 µL/min/mg | microsomal CLint at 0.5 μM [3]: < 100 µL/min/mg

O=C1c2cccc(-c3cc[nH]n3)c2CN1CCc1cn2ccccc2n1 [Example 314, 2-(2-Imidazo[1,2-a]pyridin-2-yl-ethyl)-4-(1H-pyrazol-3-yl)-2,3-dihydro-isoindol-1-one trifluoroacetate]
IC50 [1]: < 100 nM | microsomal CLint at 0.5 μM [2]: < 100 µL/min/mg | microsomal CLint at 0.5 μM [3]: < 100 µL/min/mg

O=C1c2cccc(-c3ccncc3)c2CN1CCc1cn2ccccc2n1 [Example 316, 2-(2-Imidazo[1,2-a]pyridin-2-yl-ethyl)-4-pyridin-4-yl-2,3-dihydro-isoindol-1-one]
IC50 [1]: < 100 nM | microsomal CLint at 0.5 μM [2]: < 100 µL/min/mg | microsomal CLint at 0.5 μM [3]: 100 to 220 µL/min/mg

O=C1c2c(cccc2N2C[C@@H]3CCCNC[C@H]3C2)CN1CCc1ccc2ccccc2n1 [Example 317, 7-(3aS,8aR)-Octahydro-pyrrolo[3,4-c]azepin-2-yl-2-(2-quinolin-2-yl-ethyl)-2,3-dihydro-isoindol-1-one trifluoroacetate]
IC50 [1]: 200 to 500 nM | microsomal CLint at 0.5 μM [2]: 100 to 220 µL/min/mg | microsomal CLint at 0.5 μM [3]: < 100 µL/min/mg

Cc1ncc(-c2ccnc3c2C(=O)N(CCc2ccc4ccccc4n2)C3)s1 [Example 326, 4-(2-Methyl-thiazol-5-yl)-6-(2-quinolin-2-yl-ethyl)-6,7-dihydro-pyrrolo[3,4-b]pyridin-5-one]
IC50 [1]: < 100 nM | microsomal CLint at 0.5 μM [2]: 100 to 220 µL/min/mg | microsomal CLint at 0.5 μM [3]: 100 to 220 µL/min/mg

O=C1c2c(-c3cccnc3)ccnc2CN1CCc1ccc2ccccc2n1 [Example 329, 4-Pyridin-3-yl-6-(2-quinolin-2-yl-ethyl)-6,7-dihydro-pyrrolo[3,4-b]pyridin-5-one]
IC50 [1]: < 100 nM | microsomal CLint at 0.5 μM [2]: 100 to 220 µL/min/mg | microsomal CLint at 0.5 μM [3]: 100 to 220 µL/min/mg

Cc1c(-c2ccnc3c2C(=O)N(CCc2ccc4ccccc4n2)C3)cnn1C [Example 332, 4-(1,5-Dimethyl-1H-pyrazol-4-yl)-6-(2-quinolin-2-yl-ethyl)-6,7-dihydro-pyrrolo[3,4-b]pyridin-5-one]
IC50 [1]: < 100 nM | microsomal CLint at 0.5 μM [2]: < 100 µL/min/mg | microsomal CLint at 0.5 μM [3]: < 100 µL/min/mg

Cc1cc(-c2ccnc3c2C(=O)N(CCc2ccc4ccccc4n2)C3)n(C)n1 [Example 334, 4-(2,5-Dimethyl-2H-pyrazol-3-yl)-6-(2-quinolin-2-yl-ethyl)-6,7-dihydro-pyrrolo[3,4-b]pyridin-5-one]
IC50 [1]: 100 to 200 nM | microsomal CLint at 0.5 μM [2]: < 100 µL/min/mg | microsomal CLint at 0.5 μM [3]: < 100 µL/min/mg

Cc1noc(C)c1-c1ccnc2c1C(=O)N(CCc1ccc3ccccc3n1)C2 [Example 335, 4-(3,5-Dimethyl-isoxazol-4-yl)-6-(2-quinolin-2-yl-ethyl)-6,7-dihydro-pyrrolo[3,4-b]pyridin-5-one]
IC50 [1]: 200 to 500 nM | microsomal CLint at 0.5 μM [2]: 100 to 220 µL/min/mg | microsomal CLint at 0.5 μM [3]: > 220 µL/min/mg

Cn1ccc(-c2ccnc3c2C(=O)N(CCc2ccc4ccccc4n2)C3)c1 [Example 337, 4-(1-Methyl-1H-pyrrol-3-yl)-6-(2-quinolin-2-yl-ethyl)-6,7-dihydro-pyrrolo[3,4-b]pyridin-5-one]
IC50 [1]: 100 to 200 nM | microsomal CLint at 0.5 μM [2]: 100 to 220 µL/min/mg | microsomal CLint at 0.5 μM [3]: > 220 µL/min/mg

O=C1c2c(-c3ccnnc3)ccnc2CN1CCc1ccc2ccccc2n1 [Example 338, 4-Pyridazin-4-yl-6-(2-quinolin-2-yl-ethyl)-6,7-dihydro-pyrrolo[3,4-b]pyridin-5-one]
IC50 [1]: < 100 nM | microsomal CLint at 0.5 μM [2]: < 100 µL/min/mg | microsomal CLint at 0.5 μM [3]: < 100 µL/min/mg

CCOc1ncc(-c2cccc3c2CN(CCc2ccc4ccccc4n2)C3=O)cn1 [Example 343, 4-(2-Ethoxy-pyrimidin-5-yl)-2-(2-quinolin-2-yl-ethyl)-2,3-dihydro-isoindol-1-one]
IC50 [1]: 200 to 500 nM | microsomal CLint at 0.5 μM [2]: 100 to 220 µL/min/mg | microsomal CLint at 0.5 μM [3]: > 220 µL/min/mg

O=C1c2cccc(-c3ccnnc3)c2CN1CCc1ccc2ccccc2n1 [Example 353, 4-Pyridazin-4-yl-2-(2-quinolin-2-yl-ethyl)-2,3-dihydro-isoindol-1-one]
IC50 [1]: 100 to 200 nM | microsomal CLint at 0.5 μM [2]: < 100 µL/min/mg | microsomal CLint at 0.5 μM [3]: 100 to 220 µL/min/mg

CN(C)C1CCN(c2ccnc3c2C(=O)N(CCc2ccc4ccccc4n2)C3)CC1 [Example 363, 4-(4-Dimethylamino-piperidin-1-yl)-6-(2-quinolin-2-yl-ethyl)-6,7-dihydro-pyrrolo[3,4-b]pyridin-5-one hydrochloride]
IC50 [1]: 200 to 500 nM | microsomal CLint at 0.5 μM [2]: < 100 µL/min/mg | microsomal CLint at 0.5 μM [3]: < 100 µL/min/mg

Cn1c(CCN2Cc3nccc(-c4cncnc4)c3C2=O)nc2ccccc21 [Example 364, 6-[2-(1-Methyl-1H-benzoimidazol-2-yl)-ethyl]-4-pyrimidin-5-yl-6,7-dihydro-pyrrolo[3,4-b]pyridin-5-one]
IC50 [1]: < 100 nM | microsomal CLint at 0.5 μM [2]: < 100 µL/min/mg | microsomal CLint at 0.5 μM [3]: < 100 µL/min/mg
